Data set [1] has as its target Sodium-dependent noradrenaline transporter (Homo sapiens, UniProt P23975). As to the kind of experiment: DRUGMATRIX: Norepinephrine Transporter radioligand binding (ligand: [125I] RTI-55). Type of data set: cell membranes, MDCK, Membrane. As to conditions: Not Active = under 50% inhibition at 10 µM.
Data set [2] concerns the target 5-hydroxytryptamine receptor 2B (Homo sapiens, UniProt P41595). Type of data set: cell membranes, CHO-K1, Membrane. Particulars: for Ki: read-out: Ki. On all read-outs here: in other assays of this panel Not Active means under 50% inhibition at 10 µM.
For the next data set, the target named is T1, Cytochrome P450 1A2 (Homo sapiens, UniProt P05177). Further: in other assays of this panel Not Active means under 50% inhibition at 10 µM.
T1 sequence (P05177 whole entry): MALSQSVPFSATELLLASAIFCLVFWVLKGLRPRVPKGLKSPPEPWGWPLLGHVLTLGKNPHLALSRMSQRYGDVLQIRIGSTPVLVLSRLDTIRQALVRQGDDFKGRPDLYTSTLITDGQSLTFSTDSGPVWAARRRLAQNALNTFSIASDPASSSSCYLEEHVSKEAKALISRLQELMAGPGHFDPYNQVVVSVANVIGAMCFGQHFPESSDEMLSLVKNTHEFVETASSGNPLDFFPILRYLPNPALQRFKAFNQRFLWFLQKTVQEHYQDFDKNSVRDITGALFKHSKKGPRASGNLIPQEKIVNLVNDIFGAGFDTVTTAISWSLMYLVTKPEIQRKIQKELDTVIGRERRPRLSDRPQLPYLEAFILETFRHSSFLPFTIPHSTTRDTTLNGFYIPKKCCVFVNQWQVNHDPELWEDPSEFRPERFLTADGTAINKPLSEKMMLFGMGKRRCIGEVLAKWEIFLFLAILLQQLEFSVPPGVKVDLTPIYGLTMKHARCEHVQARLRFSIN
Particulars: bti-tn-5b1-4.

A further data set deals with T2, Estrogen receptor (Homo sapiens, UniProt P03372).
T2 sequence (P03372 whole entry): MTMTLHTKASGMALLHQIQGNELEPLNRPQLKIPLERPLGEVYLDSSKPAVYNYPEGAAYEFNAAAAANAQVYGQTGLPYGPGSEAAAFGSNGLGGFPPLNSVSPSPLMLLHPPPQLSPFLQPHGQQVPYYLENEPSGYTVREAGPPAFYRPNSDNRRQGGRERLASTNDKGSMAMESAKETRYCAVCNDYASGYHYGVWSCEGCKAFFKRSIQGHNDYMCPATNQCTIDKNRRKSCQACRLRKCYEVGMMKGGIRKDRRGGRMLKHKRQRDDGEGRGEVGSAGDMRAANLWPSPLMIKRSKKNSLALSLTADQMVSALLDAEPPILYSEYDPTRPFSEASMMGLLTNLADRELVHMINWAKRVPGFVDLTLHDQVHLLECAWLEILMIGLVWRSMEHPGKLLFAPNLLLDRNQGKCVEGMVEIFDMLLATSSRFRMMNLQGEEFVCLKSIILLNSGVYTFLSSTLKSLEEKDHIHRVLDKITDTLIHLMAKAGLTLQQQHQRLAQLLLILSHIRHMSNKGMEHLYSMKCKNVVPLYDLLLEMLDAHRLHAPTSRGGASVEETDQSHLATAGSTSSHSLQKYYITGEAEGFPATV
As to conditions: sf9.

A further data set concerns the target T3, Glucocorticoid receptor (Homo sapiens, UniProt P04150). Further: in other assays of this panel Not Active means under 50% inhibition at 10 µM.
T3 sequence (P04150 whole entry): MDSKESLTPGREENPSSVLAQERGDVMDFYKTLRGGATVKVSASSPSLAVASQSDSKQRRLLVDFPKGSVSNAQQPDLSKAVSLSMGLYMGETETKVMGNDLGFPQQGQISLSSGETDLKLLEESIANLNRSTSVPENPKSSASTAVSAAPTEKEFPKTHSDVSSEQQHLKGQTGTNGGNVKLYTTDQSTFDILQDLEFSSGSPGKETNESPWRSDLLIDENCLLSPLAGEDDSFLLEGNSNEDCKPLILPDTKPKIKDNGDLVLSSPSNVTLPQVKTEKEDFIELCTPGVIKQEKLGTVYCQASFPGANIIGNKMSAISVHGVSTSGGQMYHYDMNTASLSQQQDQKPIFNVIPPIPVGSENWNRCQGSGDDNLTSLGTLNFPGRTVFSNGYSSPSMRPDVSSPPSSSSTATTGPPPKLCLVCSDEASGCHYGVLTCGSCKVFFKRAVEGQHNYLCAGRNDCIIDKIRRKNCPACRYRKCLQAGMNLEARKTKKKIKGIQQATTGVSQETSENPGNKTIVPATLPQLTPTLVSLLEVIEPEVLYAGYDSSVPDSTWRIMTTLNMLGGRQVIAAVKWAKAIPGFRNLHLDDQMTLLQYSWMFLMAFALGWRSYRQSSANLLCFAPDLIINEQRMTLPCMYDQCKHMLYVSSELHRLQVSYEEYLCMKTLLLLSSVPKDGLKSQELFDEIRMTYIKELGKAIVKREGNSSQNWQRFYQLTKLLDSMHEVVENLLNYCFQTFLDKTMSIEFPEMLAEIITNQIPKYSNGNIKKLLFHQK
Particulars: hela s3.

The next data set addresses Cytochrome P450 2C9 (Homo sapiens, UniProt P11712). Particulars: bti-tn-5b1-4.
Another data set has as its target Cytochrome P450 2D6 (Homo sapiens, UniProt P10635). As to conditions: bti-tn-5b1-4. Further: in other assays of this panel Not Active means under 50% inhibition at 10 µM.

Cytochrome P450 2D6, sequence (P10635 whole entry): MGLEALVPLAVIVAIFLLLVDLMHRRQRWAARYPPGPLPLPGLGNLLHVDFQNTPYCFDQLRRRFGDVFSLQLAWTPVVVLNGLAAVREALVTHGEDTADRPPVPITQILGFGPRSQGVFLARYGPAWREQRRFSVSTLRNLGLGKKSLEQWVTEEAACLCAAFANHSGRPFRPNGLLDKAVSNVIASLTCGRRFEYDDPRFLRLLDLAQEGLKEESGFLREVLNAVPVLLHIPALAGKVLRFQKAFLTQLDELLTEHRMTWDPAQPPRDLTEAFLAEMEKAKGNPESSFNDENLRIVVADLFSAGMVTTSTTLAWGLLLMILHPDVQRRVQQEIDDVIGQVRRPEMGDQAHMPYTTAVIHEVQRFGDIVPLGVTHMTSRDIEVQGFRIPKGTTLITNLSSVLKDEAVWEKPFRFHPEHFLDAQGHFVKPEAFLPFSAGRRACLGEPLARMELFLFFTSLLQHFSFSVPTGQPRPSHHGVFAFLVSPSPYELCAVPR
Cytochrome P450 2C9, sequence (P11712 whole entry): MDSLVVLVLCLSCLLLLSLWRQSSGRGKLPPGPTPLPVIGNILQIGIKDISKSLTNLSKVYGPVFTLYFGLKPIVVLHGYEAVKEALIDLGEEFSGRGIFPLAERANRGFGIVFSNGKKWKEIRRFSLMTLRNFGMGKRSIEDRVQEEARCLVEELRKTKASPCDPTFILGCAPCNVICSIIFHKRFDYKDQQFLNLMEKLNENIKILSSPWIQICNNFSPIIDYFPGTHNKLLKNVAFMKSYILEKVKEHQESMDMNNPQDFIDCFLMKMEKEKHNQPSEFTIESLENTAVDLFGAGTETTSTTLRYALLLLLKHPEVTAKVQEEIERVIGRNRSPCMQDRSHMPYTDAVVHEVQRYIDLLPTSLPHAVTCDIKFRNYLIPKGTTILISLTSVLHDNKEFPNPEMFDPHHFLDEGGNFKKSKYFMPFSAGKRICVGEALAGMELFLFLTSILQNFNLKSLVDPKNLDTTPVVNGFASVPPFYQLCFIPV
5-hydroxytryptamine receptor 2B, sequence (P41595 whole entry): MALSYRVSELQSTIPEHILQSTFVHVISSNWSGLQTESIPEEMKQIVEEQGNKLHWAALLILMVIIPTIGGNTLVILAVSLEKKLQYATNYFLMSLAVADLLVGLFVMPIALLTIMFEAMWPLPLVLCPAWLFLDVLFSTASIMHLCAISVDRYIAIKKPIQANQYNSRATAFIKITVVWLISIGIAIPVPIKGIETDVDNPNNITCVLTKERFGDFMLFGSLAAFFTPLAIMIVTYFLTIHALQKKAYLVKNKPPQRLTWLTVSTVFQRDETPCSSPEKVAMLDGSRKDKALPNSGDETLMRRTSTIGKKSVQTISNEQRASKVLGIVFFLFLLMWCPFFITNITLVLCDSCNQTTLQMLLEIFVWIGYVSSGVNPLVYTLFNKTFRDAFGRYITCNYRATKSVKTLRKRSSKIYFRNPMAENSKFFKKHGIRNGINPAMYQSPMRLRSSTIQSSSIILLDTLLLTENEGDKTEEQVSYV
Sodium-dependent noradrenaline transporter, sequence (P23975 whole entry): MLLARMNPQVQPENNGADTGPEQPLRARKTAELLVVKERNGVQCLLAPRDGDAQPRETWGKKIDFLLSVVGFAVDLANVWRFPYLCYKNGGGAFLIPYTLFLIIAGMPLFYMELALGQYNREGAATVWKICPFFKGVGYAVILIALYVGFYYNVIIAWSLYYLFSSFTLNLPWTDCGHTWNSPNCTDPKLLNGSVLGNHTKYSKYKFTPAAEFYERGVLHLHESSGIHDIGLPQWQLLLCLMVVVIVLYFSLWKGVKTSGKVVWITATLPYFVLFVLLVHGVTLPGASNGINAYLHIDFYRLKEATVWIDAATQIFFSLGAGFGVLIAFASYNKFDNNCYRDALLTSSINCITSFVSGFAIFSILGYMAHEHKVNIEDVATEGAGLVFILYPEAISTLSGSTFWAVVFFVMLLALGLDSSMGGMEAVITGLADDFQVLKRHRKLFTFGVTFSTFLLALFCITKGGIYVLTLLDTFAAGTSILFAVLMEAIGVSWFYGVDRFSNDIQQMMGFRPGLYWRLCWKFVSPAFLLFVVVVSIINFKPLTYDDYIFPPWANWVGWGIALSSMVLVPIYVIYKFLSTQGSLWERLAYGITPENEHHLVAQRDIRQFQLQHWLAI

As to `Nc1nc(N)c2nc(-c3ccccc3)c(N)nc2n1`, the IC50 entry (in data set [1] (mdck); in data set [2] (cho-k1); on Cytochrome P450 1A2; against Estrogen receptor; at Glucocorticoid receptor) was “Not Active” each time. Also, on Cytochrome P450 1A2, the Ki entry is “Not Active”.

Take `Cc1[nH]c(=O)c(C#N)cc1-c1ccncc1` [MILRINONE]: the IC50 entry (in data set [1] (mdck); in data set [2] (cho-k1); on Cytochrome P450 1A2; on Cytochrome P450 2C9; on Cytochrome P450 2D6; at Estrogen receptor) was “Not Active” throughout. In addition, the inhibitory constant (Ki) result on Cytochrome P450 1A2, on Cytochrome P450 2C9 and on Cytochrome P450 2D6 was “Not Active” in each case.

For `CCOc1cc(N)c(Cl)cc1C(=O)NCC1CN(Cc2ccc(F)cc2)CCO1` (stereo not drawn) [MOSAPRIDE], the IC50 result is “Not Active” in data set [1] (mdck); 296 nM in data set [2] (read-out: IC50); “Not Active” against Cytochrome P450 2D6; “Not Active” against Estrogen receptor; “Not Active” on Glucocorticoid receptor. The results for the Ki (in data set [2]; at Cytochrome P450 2D6) were 188 nM and “Not Active”, respectively.

On to `CC[C@H](C)[C@@H](CO[C@@H](Cc1ccccc1)C(=O)N[C@@H](CCS(C)(=O)=O)C(=O)OC(C)C)NC[C@@H](N)CS`, for which the IC50 entry (in data set [1] (mdck); in data set [2] (cho-k1); against Cytochrome P450 1A2; against Cytochrome P450 2C9; against Estrogen receptor; against Glucocorticoid receptor) was “Not Active” in each case. The inhibition constant Ki entry on Cytochrome P450 1A2 and on Cytochrome P450 2C9 was “Not Active” in each case.

For the compound `OC[C@@H](O)[C@@H](O)[C@H](O)[C@H](O)CO` [MANNITOL], the IC50 result (in data set [1] (mdck); in data set [2] (cho-k1); against Cytochrome P450 1A2; at Cytochrome P450 2C9; at Cytochrome P450 2D6; against Estrogen receptor) was “Not Active” throughout. For the same compound, the Ki result at Cytochrome P450 1A2, at Cytochrome P450 2C9 and on Cytochrome P450 2D6 was “Not Active” each time.

As for `Cc1cc2c(s1)Nc1ccccc1N=C2N1CCN(C)CC1` [OLANZAPINE], the IC50 result (in data set [1] (mdck); on Cytochrome P450 1A2; against Cytochrome P450 2C9; against Cytochrome P450 2D6; at Estrogen receptor; at Glucocorticoid receptor) was “Not Active” in each case. For the same compound, the Ki entry at Cytochrome P450 1A2, at Cytochrome P450 2C9 and at Cytochrome P450 2D6 was “Not Active” throughout.

As to `CCOC(=O)C1=C(C)NC(C)=C(C(=O)OCC)C1c1ccccc1/C=C/C(=O)OC(C)(C)C` [LACIDIPINE], the IC50 was 5730 nM in data set [1] (read-out: IC50); “Not Active” in data set [2] (cho-k1); “Not Active” on Cytochrome P450 1A2; “Not Active” at Cytochrome P450 2D6; “Not Active” at Estrogen receptor; “Not Active” against Glucocorticoid receptor. Moreover, the inhibition constant Ki is 5690 nM in data set [1] (read-out: Ki), “Not Active” on Cytochrome P450 1A2 and “Not Active” at Cytochrome P450 2D6.

In the case of `CNCCCC12CCC(c3ccccc31)c1ccccc12` [MAPROTILINE], the IC50 entry against Estrogen receptor and against Glucocorticoid receptor was “Not Active” throughout.

`Cc1ccc(S(=O)(=O)NC(=O)NN2CCCCCC2)cc1` [TOLAZAMIDE]: the IC50 result (in data set [1] (mdck); in data set [2] (cho-k1); against Estrogen receptor; against Glucocorticoid receptor) was “Not Active” each time.

On to `CCC(C)(C)C(=O)O[C@H]1C[C@@H](C)C=C2C=C[C@H](C)[C@H](CC[C@@H]3C[C@@H](O)CC(=O)O3)[C@H]21` [SIMVASTATIN], for which the IC50 entry (in data set [2] (cho-k1); at Estrogen receptor; against Glucocorticoid receptor) was “Not Active” throughout.

Consider `CN1C[C@H](CNC(=O)OCc2ccccc2)C[C@@H]2c3cccc4c3c(cn4C)C[C@H]21` [METERGOLINE], for which the IC50 entry against Cytochrome P450 1A2, against Cytochrome P450 2C9, on Estrogen receptor and against Glucocorticoid receptor was “Not Active” throughout. The Ki entry on Cytochrome P450 1A2 and at Cytochrome P450 2C9 was “Not Active” each time.

Regarding `CN1C(=O)OC(C)(C)C1=O` [TRIMETHADIONE], the IC50 entry (in data set [1] (mdck); in data set [2] (cho-k1); against Cytochrome P450 1A2; on Cytochrome P450 2D6; at Estrogen receptor; on Glucocorticoid receptor) was “Not Active” throughout. Besides, the Ki entry on Cytochrome P450 1A2 and on Cytochrome P450 2D6 was “Not Active” each time.

With `CC(O)C(=O)O` (stereo not drawn) [LACTIC ACID], the concentration for half-maximal inhibition (IC50) result (in data set [1] (mdck); in data set [2] (cho-k1); against Cytochrome P450 1A2; against Cytochrome P450 2C9; against Cytochrome P450 2D6; against Estrogen receptor) was “Not Active” in each case. In addition, the Ki result on Cytochrome P450 1A2, on Cytochrome P450 2C9 and on Cytochrome P450 2D6 was “Not Active” throughout.

As to `C[N+]1(C)[C@@H]2C[C@@H](OC(=O)[C@H](CO)c3ccccc3)C[C@H]1[C@@H]1O[C@@H]12.[Br-]` [METHSCOPOLAMINE BROMIDE], the IC50 result (in data set [2] (cho-k1); on Cytochrome P450 1A2; on Cytochrome P450 2D6; at Estrogen receptor; against Glucocorticoid receptor) was “Not Active” throughout. The Ki entry at Cytochrome P450 1A2 and at Cytochrome P450 2D6 was “Not Active” each time.

Take `Cc1nnc(NS(=O)(=O)c2ccc(N)cc2)s1` [SULFAMETHIZOLE]: the IC50 result (in data set [1] (mdck); in data set [2] (cho-k1); on Cytochrome P450 1A2; against Cytochrome P450 2C9; against Cytochrome P450 2D6; against Estrogen receptor) was “Not Active” in each case. The Ki result at Cytochrome P450 1A2, on Cytochrome P450 2C9 and on Cytochrome P450 2D6 was “Not Active” in each case.

With `CC(=O)O[C@]1(C(C)=O)CC[C@H]2[C@@H]3C[C@H](C)C4=CC(=O)CC[C@]4(C)[C@H]3CC[C@@]21C` [MEDROXYPROGESTERONE ACETATE], the IC50 result (in data set [1] (mdck); in data set [2] (cho-k1); at Cytochrome P450 1A2; on Cytochrome P450 2C9; on Cytochrome P450 2D6; at Estrogen receptor) was “Not Active” throughout. For the same compound, the Ki entry at Cytochrome P450 1A2, at Cytochrome P450 2C9 and on Cytochrome P450 2D6 was “Not Active” throughout.

On to `CCN(CC)CCNC(=O)c1cc(Cl)c(N)cc1OC` [METOCLOPRAMIDE], for which the IC50 entry is “Not Active” in data set [1] (mdck); 630 nM in data set [2] (read-out: IC50); “Not Active” at Cytochrome P450 1A2; “Not Active” at Cytochrome P450 2C9; “Not Active” against Estrogen receptor. Moreover, the Ki in data set [2] is 401 nM; at Cytochrome P450 1A2 it was “Not Active”; at Cytochrome P450 2C9 it was “Not Active”.

For `CCN(CC)C(=S)SSC(=S)N(CC)CC`, the IC50 entry on Cytochrome P450 2C9, at Cytochrome P450 2D6, against Estrogen receptor and against Glucocorticoid receptor was “Not Active” throughout. For the same compound, the Ki entry at Cytochrome P450 2C9 and on Cytochrome P450 2D6 was “Not Active” each time.

As a reminder, the IC50 is the concentration that gives 50% inhibition. The Ki is a measure of affinity in units of concentration, obtained from inhibition or displacement.

The values are drawn from ChEMBL document CHEMBL1909046, “DrugMatrix in vitro pharmacology data”.
